{"source": "patent US7314858B2", "about": "“Retrocyclins: antiviral and antimicrobial peptides” (priority 2001, dated 2008)", "key": {"MTT cytotoxicity assay": {"test": "MTT cytotoxicity assay", "type": "cell-based, human", "settings": "human, H9 cells", "experimental": "(§1) FIG. 8. Cytotoxicity of antimicrobial peptides against H9 cells. Retrocyclin, RTD-1 and PG-1 (a porcine-derived peptide with anti-HIV-1 activity) were tested for cytotoxicity using an MTT assay for cell proliferation. Note that the EC50 of Retrocyclin and RTD-1 were >100 μg/ml, concentrations well above their antiviral concentration.\n(§2) Retrocyclin is not cytotoxic. […] Retrocyclin was not hemolytic for human erythrocytes."}, "H9 cells": {"test_system": "H9 cells", "test": "MTT cytotoxicity assay", "type": "cell-based, human", "settings": "100 μg/ml", "experimental": "as §1, §2"}, "HIV-1 strain IIIB": {"test_system": "HIV-1 strain IIIB", "test": "HIV-1 IIIB infection of H9 cells, p24 antigen ELISA", "type": "cell-based", "experimental": "FIG. 1. Circular minidefensins reduce HIV-1 infection of H9 cells. HIV-I strain IIIB (MOI=10^−2) was incubated with 2.5×10^5 H9 cells in the presence or absence of 20 μg/ml RTD-1, RTD-2 or RTD-3. p24 antigen release was monitored by ELISA on days 3, 6, and 9. Assay sensitivity=10 pg/ml.\nImmortalized CD4^+ H9 cells, which are permissive for infection with this strain, were maintained in RPMI supplemented with 10% heat-inactivated fetal calf serum (FCS), 10 mM HEPES, 2 mM glutamine, 100 U of penicillin/ml, and 10 μg of streptomycin/ml (R10 media). Cells (2.5×10^5/100 μl) were incubated with virus (multiplicity of infection (MOI)=10^−2) in the presence or absence of 20 μg/ml RTD-1, RTD-2 or RTD-3 for 3 hrs at 37° C./5% CO2. The cells were washed in R10 media, seeded in 48-well tissue culture plates in 1 ml R10 media, and incubated at 37° C./5% CO2 for 9 days. Aliquots of cell supernatant were removed at the specified time points and analyzed by a sensitive ELISA (DuPont NEN) that quantitates p24 antigen of HIV-1. The three circular rhesus minidefensins were similarly active, inhibiting HIV-1 by 100-1000 fold by 9 days post-inoculation (note the logarithmic scale).\nEither HIV-1-permissive H9 cells were used as targets, or primary CD4^+ lymphocytes from HIV-1-seronegative donors generated from freshly purified peripheral blood mononuclear cells (PBMC) stimulated with a CD3-CD8 bispecific monoclonal antibody. After approximately 7 days, when 98% of these cells co-expressed CD3 and CD4, they were infected with HIV-1 with or without retrocyclin or other test peptide. These cells were maintained in RPMI containing 10% FCS supplemented with 2 mM glutamine, 100 U of penicillin/ml, 10 μg of streptomycin/ml, and 50 U of interleukin 2/ml (R10-50 media).\nMature retrocyclin was prepared by a three-step process."}, "L. monocytogenes EGD": {"test_system": "L. monocytogenes EGD", "test": "Two-stage radial diffusion assay", "type": "cell-based, Listeria monocytogenes", "experimental": "(§3) FIG. 4. Effect of salt on antibacterial activity of circular minidefensins. Human retrocyclin and monkey RTD-1 were tested against our standard lab stains: E. coli ML-35p, P. aeruginosa MR 3007, L. monocytogenes EGD, and S. aureus 930918. The bars show MIC values±SEM values that resulted from 3-6 radial diffusion assays per organism and assay condition.\n(§4) The effects of NaCl on the antimicrobial activity of retrocyclin and RTD-1, from two-stage radial diffusion assays, are compared in FIG. 4."}, "HIV-IIIB": {"test_system": "HIV-IIIB", "test": "Direct inactivation of HIV-1 virions (preincubation with virus, dilution, infection of H9 cells)", "type": "cell-based", "settings": "200 μg/ml, 30 min, then diluted 190-fold", "experimental": "FIG. 12. […] Retrocyclin (2-200 μg/ml) was incubated with HIV-IIIB (MOI=10^−2) diluted in R10 media prior to infecting H9 cells. p24 antigen release was measured by ELISA. Limit of detection=10 pg/ml.\nTo determine if retrocyclin directly inactivated HIV-1 virions, HIV-IIIB (MOI 10^−2) was incubated with 2 μg/ml, 20 μg/ml, or 200 μg/ml retrocyclin for 30 min at room temperature in R10 media. […] Viral replication was measured by collecting supernatant for 9 days at 3 day intervals to quantify HIV-1 p24 antigen by ELISA (FIG. 12). […] In this respect, the actions of retrocyclin are different from the direct inactivation of herpes simplex virus previously observed with human and rabbit α-defensins."}, "E. coli ML-35p": {"test_system": "E. coli ML-35p", "test": "Two-stage radial diffusion assay", "type": "cell-based, Escherichia coli", "experimental": "as §3, §4"}, "[1]": {"test_system": "ME-180 cervical carcinoma cells", "settings": "100 μg/ml"}, "[2]": {"test": "Preliminary surface plasmon resonance, sphingolipid binding", "settings": "preliminary SPR"}}, "note": "“Also recorded” adds a separate entry of the source. Where a SMILES comes first, the peptide text is derived from it. Bridges are numbered along the chain shown (N, C = ends).", "data": [{"smiles": "CC[C@H](C)[C@@H]1NC(=O)CNC(=O)[C@H](CCCNC(=N)N)NC(=O)CNC(=O)[C@@H]2CSSC[C@H](NC1=O)C(=O)N[C@@H](CCCNC(=N)N)C(=O)N[C@H]1CSSC[C@H](NC(=O)[C@H](CCCNC(=N)N)NC(=O)[C@@H]3CSSC[C@H](NC(=O)[C@H]([C@@H](C)CC)NC1=O)C(=O)NCC(=O)N[C@@H](CCCNC(=N)N)C(=O)NCC(=O)N[C@@H]([C@@H](C)CC)C(=O)N3)C(=O)N[C@@H]([C@@H](C)CC)C(=O)N2", "note": "[RC-100, Retrocyclin] (cyclo(GICRCICGRGICRCICGR); disulfide 3-16, 5-14, 7-12)", "values": [{"measurement": "EC50", "setting": "MTT cytotoxicity assay", "result": "> 100", "unit": "µg/mL"}, {"measurement": "cytotoxicity (MTT)", "setting": "H9 cells", "result": "little to no cytotoxicity"}, {"measurement": "concentration required for complete protection against HIV-1 infection", "setting": "HIV-1 strain IIIB", "result": 10, "unit": "µg/mL"}, {"measurement": "inhibition of HIV-1 replication (p24)", "setting": "HIV-1 strain IIIB; H9 cells, IIIB (X4), peptide 10-20 μg/ml", "result": "complete suppression; also recorded: antiviral"}, {"measurement": "antiviral activity", "setting": "HIV-1 strain IIIB; at <2 μg/ml, n=5", "result": "no significant antiviral activity"}, {"measurement": "effect of salt on antimicrobial activity", "setting": "L. monocytogenes EGD; hypersalinity (175 mM NaCl)", "result": "only modestly inhibitory"}, {"measurement": "antimicrobial activity", "setting": "L. monocytogenes EGD; physiological (100 mM) NaCl", "result": "strong activity"}, {"measurement": "HIV titer after incubation of virus with peptide", "setting": "HIV-IIIB", "result": "not reduced"}, {"measurement": "effect of salt on antimicrobial activity", "setting": "E. coli ML-35p; hypersalinity (175 mM NaCl)", "result": "only modestly inhibitory"}, {"measurement": "antimicrobial activity", "setting": "E. coli ML-35p; physiological (100 mM) NaCl", "result": "strong activity"}, {"measurement": "cytotoxicity (MTT)", "setting": "[1]", "result": "little to no cytotoxicity"}, {"measurement": "binding to sphingolipids (galactosylceramide)", "setting": "[2]", "result": "binds with high affinity"}, {"measurement": "hemolysis", "setting": "human erythrocytes", "result": "not hemolytic"}]}]}
